In paper PMC7926627, “Fine-Tuning the Biological Profile of Multitarget Mitochondriotropic Antioxidants for Neurodegenerative Diseases” (Antioxidants, 2021):

Columns and labels:
[1] = Oxygen radical absorbance capacity (ORAC-FL) assay; details: for ORAC-FL Index: relative Trolox equivalent ORAC value; for ROO• radical scavenging: ORAC-FL
[2] = molecular target: T1, hBChE (Homo sapiens, UniProt P06276, N45Q/N483Q/N509Q/N514Q); assay: Recombinant hBChE inhibition, Ellman's buffer; type: biochemical
T1 construct: made in house
Experimental: (§1) Recombinant hAChE and hBChE were produced and purified as previously described. Test compounds were dissolved in methanol 100 % to prepare stock solutions at 40 mM and subsequently diluted in water to reach the desired concentrations. Recombinant hAChE and hBChE activities were measured in presence of appropriate compound concentrations by spectrophotometry at 412 nm and 25 °C in a 1 mL cuvette containing Ellman’s buffer (0.5 mM DTNB, 0.1% BSA, 0.1 M phosphate, pH 7.4). Measurements were performed at least in duplicate for each tested concentration and final methanol concentrations were kept below 5%.

[3] = molecular target: T2, hAChE (Homo sapiens, UniProt P22303); assay: Recombinant hAChE inhibition, Ellman's buffer; type: biochemical
T2 construct: made in house
Experimental: as §1

[4] = molecular target: T3, hMAO-B (Homo sapiens, UniProt P27338); assay: biochemical; parameters: purchased Sigma Aldrich; host or cells: insect cells (BTI-TN-5B1-4), baculovirus
T3 sequence (P27338 1-520): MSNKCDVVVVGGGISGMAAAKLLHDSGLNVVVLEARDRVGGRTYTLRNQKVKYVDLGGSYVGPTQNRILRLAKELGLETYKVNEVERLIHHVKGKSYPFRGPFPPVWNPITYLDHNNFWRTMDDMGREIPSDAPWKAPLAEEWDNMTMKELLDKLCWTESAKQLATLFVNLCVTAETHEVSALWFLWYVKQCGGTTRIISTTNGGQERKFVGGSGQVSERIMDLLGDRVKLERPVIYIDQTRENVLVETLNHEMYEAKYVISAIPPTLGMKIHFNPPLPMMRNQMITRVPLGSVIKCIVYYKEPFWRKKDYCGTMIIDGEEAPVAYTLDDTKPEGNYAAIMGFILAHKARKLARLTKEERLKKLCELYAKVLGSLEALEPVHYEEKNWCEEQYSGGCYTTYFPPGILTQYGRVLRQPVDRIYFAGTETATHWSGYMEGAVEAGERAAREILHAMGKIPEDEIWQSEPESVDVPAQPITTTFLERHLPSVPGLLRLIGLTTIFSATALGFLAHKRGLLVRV
Experimental: (§2) The inhibitory activity of lipophilic TPP^+ cations on hMAO-A and hMAO-B was studied using an experimental protocol described elsewhere [29, 40]
(§3) Evaluation of human monoamine oxidase (hMAO) inhibitory activity The human monoamine oxidase (hMAO) inhibitory outline was assessed in microsomal MAO isoforms prepared from insect cells (BTI-TN-5B1-4) infected with recombinant baculovirus containing cDNA inserts for hMAO-A or hMAO-B an d by measuring the enzymatic conversion rates of kynuramine into 4-hydroxyquinoline. The appropriate amounts of hMAO-A and hMAO-B were adjusted to obtain, in our experimental conditions, the same maximum
(§4) All assays were performed in sodium phosphate buffer solution 50 mM pH 7.4.
(§5) The compounds under study and reference inhibitors were pre-incubated at 37 °C for 10
(§6) concentration: 2×Km) in 96-well microplates (BRANDplates, pureGradeTM, BRAND GMBH, Wertheim, Germany). Then, the reaction was started with the addition of hMAO-A or hMAO-B.
(§7) Initial velocities were determined spectrophotometrically in a microplate reader (BioTek Synergy HT from BioTek Instruments, Winooski, VT, USA) at 37 °C by measuring the formation of 4-
(§8) The initial velocities, obtained from the linear phase of product formation, were normalized and plotted against the respective inhibitor concentration. IC50 values were obtained from dose-response curves and were expressed as mean ± standard deviation. IC50 values were determined from at least three independent experiments, each performed in triplicate.

[5] = Chromatographic hydrophobicity index by gradient RP-HPLC at pH 2.3
Experimental: Chromatographic hydrophobicity indexes (CHIs) at pH 2.3 were determined using an experimental protocol described elsewhere [45, 46] and included in the supplementary information.
Evaluation of the chromatographic hydrophobicity index
Chromatographic hydrophobicity indexes (CHIs) values were determined using the
retention times (tR) of samples and a mixture of reference compounds. The data was acquired on
a Shimadzu high-performance liquid chromatograph SPD-M20A system (Shimadzu, Kyoto,
Japan) with a Luna C18 (2) column (Phenomenex, CA, USA) 150×4.6 mm, 5 µm. In CHI
determinations at pH 2.3, mobile phase A was aqueous solution of acetic acid 1 % (v/v) (pH 2.3),
and mobile phase B was acetonitrile. The following gradient program was applied: 1 mL/min
Calibration plots were obtained using a mixture of the following compounds:
paracetamol, theophylline, caffeine, benzimidazole, colchicine, carbamazepine, indole,
propiophenone, butyrophenone, valerophenone, and heptanophenone (Table S1, Figure S2).
hydrophobicity index (CHI) values were calculated as previously described [13, 14].

[6] = molecular target: T4, eqBChE (equine butyrylcholinesterase) (Equus caballus, UniProt P81908); assay: biochemical
T4 construct: butyrylcholinesterase (eqBuChE, E.C. 3.1.1.8, from equine serum); purchased Sigma Aldrich; host or cells: equine serum
Experimental: The eeAChE and eqBChE inhibitory activities of the compounds under study were determined following the Ellman’s method [32, 33]
Substrate solutions (ATCI or BCTI) were prepared in deionized water (conductivity ˂ 0.1 µS.cm-
Evaluation of eel acetylcholinesterase and equine butyrylcholinesterase inhibitory
The eeAChE and eqBChE inhibitory activities of the compounds under study were evaluated following the Ellman’s method [1, 2]. Briefly, a mixture containing sodium phosphate buffer, enzyme (final concentration: eeAChE 0.05 U/mL and eeBChE 0.05 U/mL), DTNB (final concentration: 400 µM) and the test compounds/reference inhibitors were preincubated for 5 minutes at 30 °C in a 96-well microplate (BRANDplates, pureGradeTM, BRAND GMBH, Wertheim, Germany). In control experiments, sodium phosphate buffer was used instead of the
ºC in a microplate reader (BioTek Synergy HT from BioTek Instruments, Winooski, VT, USA).
The rates of the substrate enzymatic hydrolysis were determined, normalized and plotted against the respective inhibitor concentration. IC50 values were obtained from the dose-response curves
and were expressed as mean ± standard deviation. IC50 values were determined in at least three
independent experiments, each performed at least in triplicates.

[7] = molecular target: T5, hMAO-A (Homo sapiens, UniProt P21397); assay: hMAO-A inhibition, kynuramine substrate; type: biochemical
T5 construct: purchased Sigma Aldrich; host or cells: insect cells (BTI-TN-5B1-4), baculovirus
T5 sequence (P21397 1-527): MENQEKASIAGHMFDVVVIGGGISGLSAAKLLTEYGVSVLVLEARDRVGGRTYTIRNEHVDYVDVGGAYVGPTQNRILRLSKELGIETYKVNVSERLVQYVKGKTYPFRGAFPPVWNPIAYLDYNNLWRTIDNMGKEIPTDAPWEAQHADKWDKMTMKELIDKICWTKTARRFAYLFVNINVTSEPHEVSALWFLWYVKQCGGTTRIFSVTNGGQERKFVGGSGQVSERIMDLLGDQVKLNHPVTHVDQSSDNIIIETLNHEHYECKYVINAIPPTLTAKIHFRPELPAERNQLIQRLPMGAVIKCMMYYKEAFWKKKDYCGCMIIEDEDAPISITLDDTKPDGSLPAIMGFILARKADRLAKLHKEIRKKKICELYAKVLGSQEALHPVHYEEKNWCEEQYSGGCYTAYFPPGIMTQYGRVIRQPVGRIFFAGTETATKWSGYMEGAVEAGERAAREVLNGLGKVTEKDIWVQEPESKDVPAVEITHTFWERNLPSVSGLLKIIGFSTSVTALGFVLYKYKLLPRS
Experimental: as §2, §3, §4, §5, §6, §7, §8

T1 sequence (P06276 29-557 N45Q/N483Q/N509Q/N514Q limits assumed): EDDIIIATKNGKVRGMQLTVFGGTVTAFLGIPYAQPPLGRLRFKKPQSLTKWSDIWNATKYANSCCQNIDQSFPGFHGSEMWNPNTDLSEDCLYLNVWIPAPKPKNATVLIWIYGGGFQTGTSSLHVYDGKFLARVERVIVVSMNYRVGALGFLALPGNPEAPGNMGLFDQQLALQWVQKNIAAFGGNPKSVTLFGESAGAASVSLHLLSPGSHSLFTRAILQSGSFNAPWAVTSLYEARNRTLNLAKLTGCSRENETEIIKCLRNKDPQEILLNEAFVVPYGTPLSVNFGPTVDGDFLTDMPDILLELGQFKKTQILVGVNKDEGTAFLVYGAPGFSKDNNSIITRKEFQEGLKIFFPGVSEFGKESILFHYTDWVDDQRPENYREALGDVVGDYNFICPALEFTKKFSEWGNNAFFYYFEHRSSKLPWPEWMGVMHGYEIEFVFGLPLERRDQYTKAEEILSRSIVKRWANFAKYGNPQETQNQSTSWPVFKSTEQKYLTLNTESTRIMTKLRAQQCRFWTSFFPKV
T2 sequence (P22303 32-574 limits assumed): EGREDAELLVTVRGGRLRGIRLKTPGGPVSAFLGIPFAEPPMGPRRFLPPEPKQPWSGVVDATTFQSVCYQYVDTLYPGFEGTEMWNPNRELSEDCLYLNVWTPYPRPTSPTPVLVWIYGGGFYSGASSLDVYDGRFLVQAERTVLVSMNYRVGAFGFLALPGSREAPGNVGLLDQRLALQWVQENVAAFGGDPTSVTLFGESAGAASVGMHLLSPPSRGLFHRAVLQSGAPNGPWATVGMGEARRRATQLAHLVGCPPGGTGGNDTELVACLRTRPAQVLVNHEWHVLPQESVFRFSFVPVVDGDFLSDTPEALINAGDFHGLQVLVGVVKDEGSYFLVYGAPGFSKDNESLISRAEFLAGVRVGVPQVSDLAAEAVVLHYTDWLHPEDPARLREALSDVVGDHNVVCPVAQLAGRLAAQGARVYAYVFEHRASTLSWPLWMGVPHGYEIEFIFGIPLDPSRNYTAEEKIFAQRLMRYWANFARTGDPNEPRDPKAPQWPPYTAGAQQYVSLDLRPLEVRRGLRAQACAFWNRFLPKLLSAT
T4 sequence (P81908 whole entry): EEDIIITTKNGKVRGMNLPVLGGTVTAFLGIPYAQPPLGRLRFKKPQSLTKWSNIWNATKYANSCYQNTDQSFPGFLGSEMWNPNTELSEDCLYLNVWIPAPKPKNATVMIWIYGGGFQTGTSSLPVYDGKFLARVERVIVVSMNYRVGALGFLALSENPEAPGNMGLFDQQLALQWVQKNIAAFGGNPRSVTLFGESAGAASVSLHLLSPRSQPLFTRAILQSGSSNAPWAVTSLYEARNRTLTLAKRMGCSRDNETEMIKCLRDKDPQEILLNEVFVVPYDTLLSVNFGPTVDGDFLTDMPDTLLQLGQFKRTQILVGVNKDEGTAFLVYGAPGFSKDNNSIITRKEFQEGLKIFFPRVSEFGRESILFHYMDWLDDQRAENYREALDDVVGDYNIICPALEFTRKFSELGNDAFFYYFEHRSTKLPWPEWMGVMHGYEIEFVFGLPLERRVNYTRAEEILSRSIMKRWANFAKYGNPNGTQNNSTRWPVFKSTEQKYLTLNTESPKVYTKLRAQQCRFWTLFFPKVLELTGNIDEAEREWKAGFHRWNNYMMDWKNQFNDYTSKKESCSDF

| Compound | ORAC-FL Index [1] | IC50 [2] [µM] | SI (2): hBChE selectivity index = IC50(hAChE)/IC50(hBChE) [2] | IC50 [3] [µM] | IC50 [4] [µM] | SI (3): hMAO-B selectivity index = IC50 (hMAO-A)/IC50 (hMAO-B) [4] | CHI [5] | IC50 [6] [µM] | SI (1): eqBChE selectivity index = IC50(eeAChE)/IC50(eqBChE) [6] | IC50 [7] [µM] | ROO• radical scavenging [1] |
| --- | --- | --- | --- | --- | --- | --- | --- | --- | --- | --- | --- |
| O=C(/C=C/C=C/c1ccc(O)c(O)c1)NCCCC[P+](c1ccccc1)(c1ccccc1)c1ccccc1.[Br-] [Compound 4, (4-((2E,4E)-5-(3,4-Dihydroxyphenyl)penta-2,4-dienamido)butyl)triphenylphosphonium bromide] | 3.3 ± 0.1 | 3 ± 0.2 | 7.3 | 22 ± 2 | 13.5 ± 1.1 | 0.38 | 34.4 | 0.0619 ± 0.0042 | 36 | 5.17 ± 0.54 |  |
| O=C(/C=C/C=C/c1ccc2c(c1)OCO2)NCCCCCC[P+](c1ccccc1)(c1ccccc1)c1ccccc1.[Br-] [Compound 3, (6-((2E,4E)-5-(Benzo[d][1,3]dioxol-5-yl)penta-2,4-dienamido)hexyl)triphenylphosphonium bromide] |  | 3 ± 0.4 | 0.67 | 2 ± 0.2 | 4.64 ± 0.29 | 0.26 | 45.8 | 0.0179 ± 0.0009 | 314 | 1.23 ± 0.13 | unable to scavenge ROO• radicals |
| O=C(/C=C/C=C/c1ccc2c(c1)OCO2)NCCCC[P+](c1ccccc1)(c1ccccc1)c1ccccc1.[Br-] [Compound 2, (4-((2E,4E)-5-(Benzo[d][1,3]dioxol-5-yl)penta-2,4-dienamido)butyl)triphenylphosphonium bromide] |  | 0.2 ± 0.04 | 55 | 11 ± 1 | 12.4 ± 1.9 | 0.07 | 42.8 | 0.0282 ± 0.0014 | 226 | 0.888 ± 0.022 | unable to scavenge ROO• radicals |
| O=C(/C=C/C=C/c1ccc(O)c(O)c1)NCCCCCC[P+](c1ccccc1)(c1ccccc1)c1ccccc1.[Br-] [Compound 5, (6-((2E,4E)-5-(3,4-Dihydroxyphenyl)penta-2,4-dienamido)hexyl)triphenylphosphonium bromide] | 3.1 ± 0.3 | 23 ± 2 | 0.39 | 9 ± 0.5 | 10.9 ± 0.7 | 0.20 | 37.2 | 0.0341 ± 0.0029 | 62 | 2.17 ± 0.28 |  |
